Measured values reported in patent publication US20250332180A1, “CANNABINOIDS AND IL-15 ACTIVATE NK CELLS” (The Regents of the University of California, priority 2022, published 2025).

How the values were obtained:
OSCCs [1] = assay: Cell death assay (PI staining, flow cytometry); type: cell-based, human; settings: 24 hours
Procedure: (§1) No differences between untreated tumor cells and those treated with the DMSO vehicle alone in cell count or the amount of cell death in OSCCs and OSCSCs. […] Proportion of the live cells that had lost forward and side scatter were determined indicating decreased viability of the cells. In addition, the numbers of viable cells were determined after PI staining followed by flow cytometric analysis (FIG. 2A). OSCC tumor cells were treated as in FIG. 2A and the cells were analyzed by flow cytometry to determine the proportion of the live cells that had lost forward and side scatter indicating decreased viability of the cells (FIG. 2B) and the numbers of viable OSCC tumor cells were determined after PI staining followed by flow cytometric analysis (FIG. 2C). […] PI staining was used to determine the cell death by flow cytometry. One of four representative experiment is shown in (FIG. 2D). The compiled data of paired OSCCs and OSCSCs at the same concentration of WIN 55,212-2 treatment from four experiments is shown in (FIG. 2E). Four experiments were compiled and the % cell death of tumor cells by various WIN 55-212,2 concentrations (10, 25, 50 and 100 μM) were compared to the untreated control for both OSCC (FIG. 2F) and OSCSC (FIG. 2G). […] Non-linear regression was used to fit the curve of the % cell death induced by WIN 55-212,2 in various concentrations (10, 25, 50 and 100 μM) for both OSCC and OSCSC. […] The differences were clear within each independent experiment.
(§2) PI staining was used to determine the cell death by flow cytometry. Compiled data from four independent experiments performed is shown.

OSCSCs [2] = assay: Cell death assay (PI staining, flow cytometry); type: cell-based, human
Procedure: as §1, §2

MP2 tumor cells [3] = assay: Cell death assay (PI staining, flow cytometry); type: cell-based, human; settings: 25-100 μM, 24-48 hours
Procedure: PI staining was used to determine the cell death by flow cytometry. One of two representative experiments is shown in (FIG. 4A) and the compiled data of paired MP2 and PL-12 at the same concentration of WIN 55,212-2 treatment is shown in (FIG. 4B). […] Two experiments were compiled and the % cell death of various WIN 55-212,2 concentration (10, 25, 50 and 100 μM) was compared to the untreated control for both PL12 (FIG. 4C) and MP2 (FIG. 4D). […] Non-linear regression was used to fit the curve of the % cell death induced by WIN 55-212,2 in various concentrations (10, 25, 50 and 100 μM) for both PL12 and MP2 (FIG. 4E).
PI staining was used to determine the cell death by flow cytometry. Compiled data from two experiments is shown.

MP2 tumor cells [4] = assay: Microscopy of morphology and viability; type: cell-based, human; settings: different concentrations of WIN 55,212-2, 24 hours
Procedure: (§3) MP2 and PL-12 tumor cells were treated with CDDP (50 μg/mL) and different concentrations of WIN 55,212-2 for 24 hours before the microscopic images were taken. Scale bar=50 μm.

PL-12 tumor cells = assay: Microscopy of morphology and viability; type: cell-based, human; settings: different concentrations of WIN 55,212-2, 24 hours
Procedure: as §3

OSCCs [5] = system: OSCCs
OSCSCs [6] = settings: 24 hours, up to 50 μM
[7] = vs untreated controls, 24 hours, up to 50 μM

CS(=O)(=O)O.Cc1c(C(=O)c2cccc3ccccc23)c2cccc3c2n1[C@H](CN1CCOCC1)CO3 [WIN 55,212-2, (R)-(+)-[2,3-Dihydro-5-methyl-3-(4-morpholinylmethyl)pyrrolo[1,2,3-de]-1,4-benzoxazin-6-yl]-1-naphthalenylmethanone mesylate] was tested, and the “cell death (PI staining)” value (OSCCs [1]; 75 and 100 μM) was “up to 10%”, the “forward scatter/side scatter (size of cells, early apoptosis)” value (OSCCs [1]; different concentrations) was “significant dose dependent decrease” and the “amounts of cell death in OSCSCs compared with those induced by CDDP” value (OSCSCs [2]; 25-100 μM) was “either similar or higher”. For the same molecule, the “cell death (PI staining) compared with OSCCs” value (OSCSCs [2]; all concentrations tested, 24 hours) was “higher cell death”, the “percentages of dead cells (PI staining)” value (MP2 tumor cells [3]) was “approximately 30%” and the morphology and viability (MP2 tumor cells [4]) was “largely lost their shape and morphology”. The morphology and viability (PL-12 tumor cells) was “maintained their morphology and remained viable”, the “decrease in cell surface MHC class I expression, OSCCs compared with OSCSCs” value (OSCCs [5]; after WIN 55,212-2 treatment) was “Significantly greater decrease” and the “cell surface expression of CD44” value (OSCCs [5]; [7]) was “Decreased expression”. The “cell surface expression of CD54” value (OSCCs [5]; [7]) was “Decreased expression”, the “cell surface expression of MHC class I” value (OSCCs [5]; [7]) was “Decreased expression” and the “cell surface expression of PD-L1” value (OSCCs [5]; [7]) was “Decreased expression”. The “cell surface expression of CD44” value (OSCSCs [6]) was “decreased”, the “cell surface expression of CD54” value (OSCSCs [6]) was “decreased” and the “cell surface expression of MHC class I” value (OSCSCs [6]) was “remained unchanged”. For the same molecule, the “cell surface expression of PD-L1” value (OSCSCs [6]) was “decreased”.
